What is called IC50 is the concentration that inhibits the measured activity by half.

Drawing on patent US20250236608A1, “EGFR INHIBITORS” (Blueprint Medicines Corporation, priority 2022, published 2025), this text covers IC50 for 17 molecules.

The target of one assay is EGFR L858R (Homo sapiens (Human), UniProt P00533, L858R). The assay can be described thus: Biochemical EGFR inhibition assay, EGFR L858R. The settings on record: Caliper mobility shift; 1.0 mM ATP or ATP Km; read-out: Enz EGFR_L858R IC50. As for the experimental part: (§1) Reactions proceeded until between 10% to 20% total peptides were phosphorylated at room temperature (25° C.) and were terminated with 35 mM 2,2′,2″,2″-(ethane-1,2-diyldinitrilo)tetraacetic acid (EDTA). Product was detected using the Caliper mobility shift detection method where the phosphorylated peptide (product) and substrate were electrophoretically separated and measured. Percent activity was plotted against log concentration of compound and points to generate an apparent IC50.

The next assay has as its target EGFR (d746-750) (Homo sapiens (Human), UniProt P00533, DEL746-750). The assay can be described thus: Biochemical EGFR inhibition assay, EGFR (d746-750). The note with it: Caliper mobility shift; 1.0 mM ATP or ATP Km; read-out: Enz EGFR_Exon19-del746-750 IC50. As for the experimental part: as §1
Assay [1] has as its target pEGFR (Tyr1068) in PC-9 cells (Ex19Del) (Homo sapiens (Human), UniProt P00533, DEL746-750). The assay can be described thus: PC-9 pEGFR AlphaLISA assay. It counts as cell-based. The settings on record: 4 hours incubation, p-EGFR (Tyr1068) AlphaLISA, read-out: Ext pEGFR_PC-9 Ex19Del IC50. As for the experimental part: PC-9/A431 pEGFR AlphaLISA Assays
Inhibitory effects of compounds were evaluated in cellular assays that measure level of intracellular phosphorylation of EGFR in PC-9 (ECACC, #90071810, Milipore/Sigma) and A431 cell lines (ATCC, CRL-1555) using AlphaLISA sureFire ultra p-EGFR (Tyr1068) assay kit (PerkinElmer, ALSU-PEGFR-A50K). PC-9 cells were seeded at 3.125×10^5 cells/ml in 40 μL phenol-free DMEM supplemented with 10% FBS per well of a 384 well plate (Corning, 3764), while A431 were seeded at 3.125×10^5 cells/ml in 40 μL in phenol-free DMEM with 0.5% FBS. Cells were allowed to adhere overnight at 37° C./5% CO2. On the next day, compounds were transferred at 4-fold, 10-point serial dilution from compound source plate to cell plates using liquid handler Echo550 and were incubated at 37° C./5% CO2 for 4 hours. A431 cells were stimulated prior harvesting for 10 min with EGF at final concentration of 30 ng/ml in the incubator. Medium was removed from the plates and cells were lysed with 10 μL of 1× AlphaLISA lysis buffer (supplemented with 1× protease/phosphatase inhibitor cocktail) followed by shaking at 600 rpm for 30 minutes at room temperature. Lysates were transferred to Optiplate (Apricot designs) and 5 μl of 1× acceptor bead mix (prepared just before use) was added to each well followed by incubation at room temperature for 1.5-2 h in dark. Then 5 μL of freshly-made donor bead mix is added to each well under subdued lighting or green filters, was mixed well on the shaker and the plate was sealed and left for an overnight incubation at room temperature in dark. On the next day, the plate was read the Envision using standard AlphaLisa settings. Percent of pEGFR inhibition was plotted against log concentration of compounds to generate IC50 values.
A general note: Alpha assays give light when donor and acceptor beads are brought close together.

pEGFR (Tyr1068) in PC-9 cells (Ex19Del), sequence (P00533 other isoform, or with tags, fused parts or gaps del 746-750): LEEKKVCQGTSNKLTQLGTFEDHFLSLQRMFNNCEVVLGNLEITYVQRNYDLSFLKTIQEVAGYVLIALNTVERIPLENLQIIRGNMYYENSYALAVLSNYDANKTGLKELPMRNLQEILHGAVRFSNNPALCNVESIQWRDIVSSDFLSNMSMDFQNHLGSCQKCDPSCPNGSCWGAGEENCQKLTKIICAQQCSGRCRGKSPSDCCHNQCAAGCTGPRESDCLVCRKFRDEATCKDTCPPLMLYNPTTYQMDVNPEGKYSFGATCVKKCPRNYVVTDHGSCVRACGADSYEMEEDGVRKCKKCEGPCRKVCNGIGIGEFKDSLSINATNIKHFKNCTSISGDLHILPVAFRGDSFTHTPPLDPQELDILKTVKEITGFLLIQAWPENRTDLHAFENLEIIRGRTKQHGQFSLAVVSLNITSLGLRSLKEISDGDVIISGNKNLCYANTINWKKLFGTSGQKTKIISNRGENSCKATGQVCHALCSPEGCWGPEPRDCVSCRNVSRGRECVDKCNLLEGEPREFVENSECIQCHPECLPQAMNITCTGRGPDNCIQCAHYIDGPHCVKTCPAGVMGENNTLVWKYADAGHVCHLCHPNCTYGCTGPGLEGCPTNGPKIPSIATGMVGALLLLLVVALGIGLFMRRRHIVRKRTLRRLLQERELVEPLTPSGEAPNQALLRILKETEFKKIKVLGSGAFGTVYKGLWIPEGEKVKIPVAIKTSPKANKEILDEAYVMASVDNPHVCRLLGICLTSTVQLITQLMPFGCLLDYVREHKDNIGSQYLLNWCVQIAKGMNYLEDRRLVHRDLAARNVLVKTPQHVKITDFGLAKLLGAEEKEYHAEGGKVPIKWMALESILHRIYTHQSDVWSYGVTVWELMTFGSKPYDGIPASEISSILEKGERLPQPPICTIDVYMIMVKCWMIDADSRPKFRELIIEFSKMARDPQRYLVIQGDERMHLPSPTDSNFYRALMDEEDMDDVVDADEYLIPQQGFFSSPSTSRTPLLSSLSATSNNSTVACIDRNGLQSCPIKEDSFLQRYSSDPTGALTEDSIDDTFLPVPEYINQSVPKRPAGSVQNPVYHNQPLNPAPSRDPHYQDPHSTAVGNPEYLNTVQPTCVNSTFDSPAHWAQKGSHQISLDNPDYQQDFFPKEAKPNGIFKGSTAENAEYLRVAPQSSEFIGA
EGFR (d746-750), sequence (P00533 other isoform, or with tags, fused parts or gaps del 1-694/del 746-750 limits assumed): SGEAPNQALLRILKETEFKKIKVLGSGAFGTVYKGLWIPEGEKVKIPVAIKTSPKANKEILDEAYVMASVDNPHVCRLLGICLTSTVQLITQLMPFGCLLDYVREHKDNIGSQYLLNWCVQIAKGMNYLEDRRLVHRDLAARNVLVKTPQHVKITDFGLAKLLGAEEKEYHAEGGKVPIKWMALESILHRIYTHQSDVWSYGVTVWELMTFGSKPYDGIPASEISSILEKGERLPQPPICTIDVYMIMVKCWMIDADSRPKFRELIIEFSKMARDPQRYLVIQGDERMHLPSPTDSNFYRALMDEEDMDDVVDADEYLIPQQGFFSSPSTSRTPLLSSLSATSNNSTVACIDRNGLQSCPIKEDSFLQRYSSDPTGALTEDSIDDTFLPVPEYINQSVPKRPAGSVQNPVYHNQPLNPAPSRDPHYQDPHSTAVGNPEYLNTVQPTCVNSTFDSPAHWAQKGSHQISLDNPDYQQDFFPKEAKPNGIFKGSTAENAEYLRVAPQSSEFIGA
EGFR L858R, sequence (P00533 25-1210 L858R): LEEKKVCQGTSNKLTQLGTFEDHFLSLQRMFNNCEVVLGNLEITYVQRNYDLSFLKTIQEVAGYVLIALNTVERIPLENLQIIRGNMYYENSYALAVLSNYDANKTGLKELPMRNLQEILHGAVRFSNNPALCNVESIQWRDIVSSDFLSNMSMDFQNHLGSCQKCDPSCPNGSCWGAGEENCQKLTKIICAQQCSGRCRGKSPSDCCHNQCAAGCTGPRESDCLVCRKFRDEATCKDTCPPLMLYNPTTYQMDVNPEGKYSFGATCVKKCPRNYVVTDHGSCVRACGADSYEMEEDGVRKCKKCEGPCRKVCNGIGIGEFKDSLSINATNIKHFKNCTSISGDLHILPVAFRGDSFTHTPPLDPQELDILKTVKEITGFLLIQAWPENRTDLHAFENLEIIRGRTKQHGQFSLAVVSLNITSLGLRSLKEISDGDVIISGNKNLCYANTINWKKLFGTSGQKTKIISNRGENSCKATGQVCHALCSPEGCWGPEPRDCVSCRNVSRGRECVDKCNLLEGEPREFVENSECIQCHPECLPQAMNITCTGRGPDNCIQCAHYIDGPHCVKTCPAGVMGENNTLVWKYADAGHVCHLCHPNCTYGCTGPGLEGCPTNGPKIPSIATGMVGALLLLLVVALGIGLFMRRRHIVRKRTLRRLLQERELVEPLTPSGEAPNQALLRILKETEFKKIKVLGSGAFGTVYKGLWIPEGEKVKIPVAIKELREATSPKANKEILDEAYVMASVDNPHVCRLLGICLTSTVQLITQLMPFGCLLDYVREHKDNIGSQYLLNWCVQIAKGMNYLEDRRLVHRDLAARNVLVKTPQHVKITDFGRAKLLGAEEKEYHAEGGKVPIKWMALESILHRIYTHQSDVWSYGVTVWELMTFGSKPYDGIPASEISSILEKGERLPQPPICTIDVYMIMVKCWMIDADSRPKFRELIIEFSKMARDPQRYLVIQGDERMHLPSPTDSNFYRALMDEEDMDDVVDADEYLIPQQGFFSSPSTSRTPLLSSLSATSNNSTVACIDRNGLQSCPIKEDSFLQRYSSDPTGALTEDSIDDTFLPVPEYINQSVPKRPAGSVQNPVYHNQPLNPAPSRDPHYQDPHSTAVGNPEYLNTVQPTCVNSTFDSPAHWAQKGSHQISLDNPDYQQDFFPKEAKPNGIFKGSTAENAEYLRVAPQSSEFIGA

Regarding `Cn1cc(-c2ncnc3cc(C(F)(F)F)c(NC(=O)C45COCC4C5)nc23)c(-c2ccccc2)n1` (stereo not drawn) [Example 488, N-(4-(1-methyl-3-phenyl-1H-pyrazol-4-yl)-7-(trifluoromethyl)pyrido[3,2-d]pyrimidin-6-yl)-3-oxabicyclo[3.1.0]hexane-1-carboxamide], the figures for the 50% inhibitory concentration (IC50) (at EGFR L858R; at EGFR (d746-750); in assay [1]) were 416 nM, 126 nM and 981 nM, respectively.
Turning to `COc1cc2ncnc(-c3cn(C)nc3-c3ccccc3)c2nc1O[C@H](C)c1nccs1` [Example 32, (R)-2-(1-((7-methoxy-4-(1-methyl-3-phenyl-1H-pyrazol-4-yl)pyrido[3,2-d]pyrimidin-6-yl)oxy)ethyl)thiazole], the IC50 was determined as 1.1 nM at EGFR L858R, 0.8 nM on EGFR (d746-750) and 1.2 nM in assay [1].
In the same order, the values of `Cn1cc(-c2ccc3c(-c4c[nH]nc4-c4ccccc4F)ncnc3c2)cn1` [Example 443, 4-[3-(2-fluorophenyl)-1H-pyrazol-4-yl]-7-(1-methyl-1H-pyrazol-4-yl)quinazoline] are 0.8 nM, 0.4 nM and 0.3 nM.
For the molecule `COc1cc2ncnc(-c3cn(C)nc3-c3ccccc3)c2nc1O[C@@H](C)c1ncsc1C` (single isomer, unassigned) [Example 54, (S)-4-(1-((7-methoxy-4-(1-methyl-3-phenyl-1H-pyrazol-4-yl)pyrido[3,2-d]pyrimidin-6-yl)oxy)ethyl)-5-methylthiazole or (R)-4-(1-((7-methoxy-4-(1-methyl-3-phenyl-1H-pyrazol-4-yl)pyrido[3,2-d]pyrimidin-6-yl)oxy)ethyl)-5-methylthiazole], the IC50 was 10.6 nM on EGFR L858R, 1 nM on EGFR (d746-750) and 1.6 nM in assay [1].
`COc1cc2ncnc(-c3cn(C)nc3-c3ccccc3)c2nc1NC(=O)[C@H]1C[C@H]2C[C@H]2N1C` [Example 419, (1R,3R,5R)—N-(7-methoxy-4-(1-methyl-3-phenyl-1H-pyrazol-4-yl)pyrido[3,2-d]pyrimidin-6-yl)-2-methyl-2-azabicyclo[3.1.0]hexane-3-carboxamide]: the IC50 on EGFR L858R was determined as 1.6 nM; on EGFR (d746-750), 1 nM; in assay [1], 0.4 nM.
For `COc1cc2ncnc(-c3cn(C)nc3-c3ccccc3)c2cc1NC(=O)C1CC(F)(F)C1` [Example 346, 3,3-difluoro-N-(7-methoxy-4-(1-methyl-3-phenyl-1H-pyrazol-4-yl)quinazolin-6-yl)cyclobutane-1-carboxamide], the half-maximal inhibitory concentration (IC50) worked out at 2.1 nM on EGFR L858R, 1.3 nM at EGFR (d746-750) and 0.9 nM in assay [1].
Regarding `Cc1nnc([C@@H](C)Oc2nc3c(-c4cn(C)nc4-c4ccccc4)ncnc3cc2OC2CC2)o1` (single isomer, unassigned) [Example 478, 2-[(1S)-1-{[7-cyclopropoxy-4-(1-methyl-3-phenyl-1H-pyrazol-4-yl)pyrido[3,2-d]pyrimidin-6-yl]oxy}ethyl]-5-methyl-1,3,4-oxadiazole or 2-[(1R)-1-{[7-cyclopropoxy-4-(1-methyl-3-phenyl-1H-pyrazol-4-yl)pyrido[3,2-d]pyrimidin-6-yl]oxy}ethyl]-5-methyl-1,3,4-oxadiazole], the concentration for half-maximal inhibition (IC50) on EGFR L858R is 10.5 nM; on EGFR (d746-750), 2.8 nM; in assay [1], 3.6 nM.
As to `COc1cc2ncnc(-c3cn(C)nc3-c3ccccc3)c2cc1OC(=O)N1CCO[C@@H]2C[C@@H]21` (racemic) [Example 83, Cis-rac-7-methoxy-4-(1-methyl-3-phenyl-1H-pyrazol-4-yl)quinazolin-6-yl (1R,6S)-2-oxa-5-azabicyclo[4.1.0]heptane-5-carboxylate], the IC50 at EGFR L858R was 3 nM; at EGFR (d746-750), 2.2 nM; in assay [1] it was 4.9 nM.
With `CCc1cc2ncnc(-c3cn(C)nc3-c3ccccc3)c2nc1NC(=O)C12COCC1C2` (stereo not drawn) [Example 452, N-(7-ethyl-4-(1-methyl-3-phenyl-1H-pyrazol-4-yl)pyrido[3,2-d]pyrimidin-6-yl)-3-oxabicyclo[3.1.0]hexane-1-carboxamide], the values for the IC50 (at EGFR L858R; at EGFR (d746-750); in assay [1]) were 28.9 nM, 5.3 nM and 14.8 nM, respectively.
As to `COc1cc2ncnc(-c3cn(C)nc3-c3ccccc3)c2cc1NC(=O)c1cc2n(n1)CCCC2` [Example 225, N-(7-methoxy-4-(1-methyl-3-phenyl-1H-pyrazol-4-yl)quinazolin-6-yl)-4,5,6,7-tetrahydropyrazolo[1,5-a]pyridine-2-carboxamide], the IC50 was found to be 14 nM on EGFR L858R, 9 nM on EGFR (d746-750) and 5.1 nM in assay [1].
On to `COc1cc2ncnc(-c3cn(C)nc3-c3ccccc3)c2cc1NC(=O)[C@@]12COC[C@@H]1C2` (single isomer, unassigned) [Example 261, (1R,5R)—N-(7-methoxy-4-(1-methyl-3-phenyl-1H-pyrazol-4-yl)quinazolin-6-yl)-5-methyl-3-oxabicyclo[3.1.0]hexane-1-carboxamide or (1S,5S)—N-(7-methoxy-4-(1-methyl-3-phenyl-1H-pyrazol-4-yl)quinazolin-6-yl)-3-oxabicyclo[3.1.0]hexane-1-carboxamide], for which the 50% inhibitory concentration (IC50) at EGFR L858R was 2.8 nM; at EGFR (d746-750), 1.3 nM; in assay [1], 6.1 nM.
Consider `CCOc1cc2ncnc(-c3cn(C)nc3-c3ccccc3)c2nc1NC(=O)[C@]12COC[C@H]1C2` (single isomer, unassigned) [Example 379, (1S,5S)—N-(7-ethoxy-4-(1-methyl-3-phenyl-1H-pyrazol-4-yl)pyrido[3,2-d]pyrimidin-6-yl)-3-oxabicyclo[3.1.0]hexane-1-carboxamide or (1R,5R)—N-(7-ethoxy-4-(1-methyl-3-phenyl-1H-pyrazol-4-yl)pyrido[3,2-d]pyrimidin-6-yl)-3-oxabicyclo[3.1.0]hexane-1-carboxamide], for which the values for the IC50 (on EGFR L858R; on EGFR (d746-750); in assay [1]) were 2.5 nM, 0.7 nM and 0.8 nM, respectively.
On to `COc1cc2ncnc(-c3cn(C)nc3-c3ccccc3)c2nc1NC(=O)[C@@H]1C[C@H]2C[C@H]2N1C` [Example 418, (1R,3S,5R)—N-(7-methoxy-4-(1-methyl-3-phenyl-1H-pyrazol-4-yl)pyrido[3,2-d]pyrimidin-6-yl)-2-methyl-2-azabicyclo[3.1.0]hexane-3-carboxamide], for which the IC50 on EGFR L858R came out at 1.8 nM; on EGFR (d746-750) it was 0.6 nM; in assay [1], 1.8 nM.
As for `COc1cc2ncnc(-c3cn(C)nc3-c3ccccc3)c2cc1NC(=O)c1ccncc1Cl` [Example 190, 3-chloro-N-(7-methoxy-4-(1-methyl-3-phenyl-1H-pyrazol-4-yl)quinazolin-6-yl)isonicotinamide], the 50% inhibitory concentration (IC50) on EGFR L858R is 1.1 nM; at EGFR (d746-750), 0.8 nM; in assay [1], 1.5 nM.
As to `CCOc1cc2ncnc(-c3cn(C)nc3-c3ccccc3)c2cc1[C@@H](C)O` (single isomer, unassigned) [Example 104, (R)-1-(7-ethoxy-4-(1-methyl-3-phenyl-1H-pyrazol-4-yl)quinazolin-6-yl)ethan-1-ol or (S)-1-(7-ethoxy-4-(1-methyl-3-phenyl-1H-pyrazol-4-yl)quinazolin-6-yl)ethan-1-ol], the half-maximal inhibitory concentration (IC50) on EGFR L858R is 2.1 nM; at EGFR (d746-750), 1.3 nM; in assay [1] it was 5.2 nM.
In the same order, the values of `COc1cc2ncnc(-c3cn(C)nc3-c3ccc(F)cc3)c2cc1NC(=O)c1cn(C)nc1C` [Example 305, N-(4-(3-(4-fluorophenyl)-1-methyl-1H-pyrazol-4-yl)-7-methoxyquinazolin-6-yl)-1,3-dimethyl-1H-pyrazole-4-carboxamide] are 5.1 nM, 3.3 nM and 3.5 nM.
In the same order, the values of `COc1cc2ncnc(-c3cn(C)nc3-c3ccccc3)c2cc1NC(=O)c1ccn(C(C)C)n1` [Example 205, 1-isopropyl-N-(7-methoxy-4-(1-methyl-3-phenyl-1H-pyrazol-4-yl)quinazolin-6-yl)-1H-pyrazole-3-carboxamide] are 1.2 nM, 0.8 nM and 0.8 nM.
